Test results published in patent US9138398B2, “Cationic alcohols and uses thereof” (Living Proof, Inc., priority 2009, dated 2015).

Assay: Contact angle measurements of hair fiber (Cahn DCA-312 tensiometer)
Conditions: 1.5% Example 15 in conditioner C2, 20 cycles, versus placebo conditioner C1
Description: As described previously, improving upon benefits such as hydrophobicity, shine and tactile properties leads to the perception of healthier, more conditioned hair. Contact angle measurement has proven to be a viable method to measure the degree of hydrophobicity of hair. In principle, it measures the angle at the point of contact of a liquid with a surface. If the surface is highly hydrophobic (such as virgin, untreated hair), the angle of the water droplet at the interface would be greater than 90°. Likewise, a hydrophilic surface would cause the water droplet to fall flat, and the angle would be close to 0°.
Virgin black hair tresses (1.5 g each, from International Hair Importers) were bleached once with a homogeneous mixture of Clairol Pure White 20V hydrogen peroxide solution (45 ml) and Clairol bleach powder Ultra Concentrate BW2000 (6.75 g) for 10 min at 50° C. The tresses were shampooed with a 7.5% Sodium Lauryl Sulfate solution twice and air-dried for 24 h. […]
Contact angle measurements were performed with a Cahn DCA-312 tensiometer. […] The water surface tension was determined with a platinum DuNuoy ring (Cat 14-812-5) to be 70.6 mN/m. […]
The hair fiber diameter was measured with a precision micrometer (Mitutoyo Cat 293-761-30). […] The advancing and receding contact angles were measured for each sample, with runs performed in triplicate.

C[N+](C)(CC[N+](C)(C)CC(O)COCC(F)(F)C(F)F)CC(O)COCC(F)(F)C(F)F (stereo not shown) [Example 15]
Change of contact angle of bleached hair (hydrophobicity), in words: significantly increased the contact angle
